Assay results as given in US20130023553A1, “PEGYLATED OPIOIDS WITH LOW POTENTIAL FOR ABUSE AND SIDE EFFECTS” (Nektar Therapeutics, priority 2010, published 2013).
Where two headings read alike, the source gives them in different places.

Assays:
[1] = target: T1, human mu opioid receptor (Homo sapiens, UniProt P35372); assay: biochemical; format: binding
T1 construct: expressed in transfected cells; host or cells: CHO cells
Experimental: Radioligand displacement was measured using scintillation proximity assays (SPA).
Briefly, serial dilutions of the test compounds were placed in a 96-well plate to which were added SPA beads, membrane and radioligand. The assay conditions for each opioid receptor subtype are described in Table 10 below. The plates were incubated for 8 hours-overnight at room temperature, spun at 1000 rpm to pellet the SPA beads, and radioactivity was measured using the TopCount® microplate Scintillation counter. Specific binding at each concentration of test compound was calculated by subtracting the non-specific binding measured in the presence of excess cold ligand. IC50 values were obtained by non-linear regression of specific binding versus concentration curves and Ki values were calculated using Kd values that were experimentally pre-determined for each lot of membrane preparations.

[2] = target: T1, human mu opioid receptor; assay: cell-based; settings: for Emax: read-out: % max effect, mu opioid receptor
Experimental: Studies were conducted in CHO cells heterologously expressing the cloned human mu, kappa or delta opioid receptors. cAMP was measured using a cAMP HiRange homogenous time-resolved fluorescence assay (HTRF Assay), that is based on a competitive immunoassay principle (Cisbio, Cat.#62AM6PEC).
Briefly, suspensions of cells expressing either the mu, kappa or delta opioid receptors were prepared in buffer containing 0.5 mM isobutyl-methyl xanthine (IBMX). […] EC50 values were calculated for each compound from a sigmoidal dose-response plot of concentrations versus maximum response. To determine if the compounds behaved as full or partial agonists in the system, the maximal response at the highest tested concentrations of compounds were compared to that produced by a known full agonist.

[3] = test system: squirrel monkeys; assay: Monkey self-administration model of addictive potential
Excerpt: Dose-related effects of the test articles were examined, using two or more doses of each drug in 3-4 subjects in a double alternation schedule in which each unit dose (or vehicle) was used in two consecutive sessions before a change in unit dose.
Addictive potential of opioid compounds and opioid conjugates of the invention may be assessed through the use of squirrel monkey models as known in the art.
Under the double alternation schedule, each unit dose (or vehicle) was available for intravenous self-administration for two consecutive sessions before the unit dose was changed. In this way, it was possible to establish the function relating unit dose of intravenous drug to (i) number of injections per session, and/or (ii) the percentage of total responses that occur on the lever leading to self-administration (injection-lever responding, % ILR). Unit doses of drugs ranged from 0.01 to 3.2 mg/kg/injection.

[4] = Pharmacokinetics following intravenous (IV) dosing; format: in vivo, Sprague-Dawley rats; design: Cmax: unit: ng/mL; settings: for Vd: read-out: Vss
Excerpt: (§1) There were 3 rats/group. All animals were food fasted overnight. […] The predose sample was collected from the JVC.
(§2) Following the last collection point, the animals were euthanized.

[5] = Pharmacokinetics following oral (PO) dosing; format: in vivo, Sprague-Dawley rats; design: Cmax: unit: ng/mL
Excerpt: as §1, §2

[6] = male, Sprague-Dawley, rat, plasma, hydroxycodone series, 1 mg/kg IV, Mean ± SD
[7] = male, Sprague-Dawley, rat, plasma, hydroxycodone series, 1 mg/kg IV, Mean ± SD, read-out: Cmax
[8] = male, Sprague-Dawley, rat, plasma, hydroxycodone series, 1 mg/kg IV, Mean ± SD, read-out: T1/2(z)
[9] = CHO-K1 membranes, [3H]DAMGO 6 nM, read-out: Ki, Mu opioid receptor
[10] = maximal response at the highest tested concentration
[11] = read-out: EC50, mu opioid receptor
[12] = male, Sprague-Dawley, rat, plasma, iv, 1 mg/kg
[13] = male, Sprague-Dawley, rat, plasma, iv, 1 mg/kg, read-out: Cmax
[14] = male, Sprague-Dawley, rat, plasma, iv, 1 mg/kg, read-out: T1/2(2)
[15] = male, Sprague-Dawley, rat, plasma, po, 5 mg/kg
[16] = male, Sprague-Dawley, rat, plasma, po, 5 mg/kg, read-out: Cmax
[17] = male, Sprague-Dawley, rat, plasma, po, 5 mg/kg, read-out: T1/2(2)
[18] = male, Sprague-Dawley, rat, plasma, po, 5 mg/kg, read-out: Tmax (converted)
[19] = codeine series, 5 mg/kg oral, Mean ± SD
[20] = male, Sprague-Dawley, rat, plasma, hydroxycodone series, 5.0 mg/kg oral, Mean ± SD

T1 sequence (P35372 whole entry): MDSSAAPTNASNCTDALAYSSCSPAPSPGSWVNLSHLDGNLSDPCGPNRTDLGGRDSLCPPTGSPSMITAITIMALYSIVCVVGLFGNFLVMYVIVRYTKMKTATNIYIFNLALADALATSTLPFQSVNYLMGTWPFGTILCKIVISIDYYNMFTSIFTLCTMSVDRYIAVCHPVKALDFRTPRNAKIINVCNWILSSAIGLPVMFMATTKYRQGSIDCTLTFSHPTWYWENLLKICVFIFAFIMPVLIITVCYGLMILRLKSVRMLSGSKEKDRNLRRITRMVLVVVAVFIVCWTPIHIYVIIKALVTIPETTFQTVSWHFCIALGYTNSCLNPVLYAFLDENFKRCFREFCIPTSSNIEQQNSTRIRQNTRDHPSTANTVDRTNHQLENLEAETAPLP

## COCCOCCOC1C=CC2C3Cc4ccc(O)c5c4C2(CCN3C)C1O5 (stereo not drawn) [α-6-mPEG2-O-morphine]
[1]
  Ki: 22 nM
[2]
  EC50: 93.3 nM
  Emax: 91%

## COCCOCCOCCOC1CCC2(O)C3Cc4ccc(OC)c5c4C2(CCN3C)C1O5 (stereo not drawn) [α-6-mPEG3-O-hydroxycodone, α-6-mPEG3-O-oxycodone]
[3]; 0.1 mg/kg/injection
  subjects showing addictive behavior: 25%
[3]; 0.3 mg/kg/injection
  subjects showing addictive behavior: 50%
[3]; 1 mg/kg/injection
  subjects showing addictive behavior: 100%
[4]; [6]
  AUC: 230 ng·h/mL
  AUC(0-inf): 233 ng·h/mL
  MRT last: 32.5 min
  clearance: 71.7 ± 4.99 mL/min/kg
  Vd: 2.62 ± 0.206 L/kg
[4]; [7]
  Cmax: 746 ± 2.08 ng/mL
[4]; [8]
  half-life: 48.5 ± 7.83 min
[1]; [9]
  Ki: 775 nM
[2]; [10]
  Emax: 108%
[2]; [11]
  EC50: 2830 nM

## COCCOCCOCCOCCOCCOCCOCCOC1C=CC2C3Cc4ccc(OC)c5c4C2(CCN3C)C1O5 (stereo not drawn) [α-6-mPEG7-O-codeine]
[4]; [12]
  AUC: 212 ng·h/mL
  AUC(0-inf): 228 ng·h/mL
  MRT last: 50.7 min
  clearance: 73.1 ± 1.73 mL/min/kg
  Vd: 5.2 ± 0.596 L/kg
[4]; [13]
  Cmax: 443 ± 43.3 ng/mL
[4]; [14]
  half-life: 74.5 ± 5.76 min
[1]; [9]
  Ki: 9960 nM
[2]; [10]
  Emax: 75%
[2]; [11]
  EC50: 44700 nM
[5]; [15]
  AUC: 285 ng·h/mL
  AUC(0-inf): 267 ng·h/mL
  MRT last: 2.85 h
  bioavailability: 26.9%
[5]; [16]
  Cmax: 76.6 ± 12.8 ng/mL
[5]; [17]
  half-life: 97.6 min
[5]; [18]
  Tmax: 120 min

## COCCOCCOCCOCCOCCOCCOCCOC1C=CC2C3Cc4ccc(O)c5c4C2(CCN3C)C1O5 (stereo not drawn) [α-6-mPEG7-O-morphine]
[1]
  Ki: 56.9 nM
[2]
  EC50: 508 nM
  Emax: 90%

## COc1ccc2c3c1O[C@H]1[C@@H](O)C=C[C@H]4[C@@H](C2)N(C)CC[C@@]341 [Codeine, codeine, reference compound]
[4]; codeine series, 1 mg/kg IV
  AUCall: 11000 ± 1600 ng·min/mL
  AUCinf: 11400 ± 2070 ng·min/mL
  CL: 89.7 ± 15.3 mL/min/kg
  Cmax: 469 ± 20.4 ng/mL
  MRTlast: 40.2 ± 9.08 min
  Vss: 4.14 ± 0.700 L/kg
[5]; [19]
  AUCall: 328 ± 216 ng·min/mL
  Cmax: 6.24 ± 2.51 ng/mL
  MRTlast: 33.2 ± 12.9 min
[5]; codeine series, 5 mg/kg oral, Mean ± SD, # n = 1, * n = 2
  AUCinf: 431^# min · ng/mL
[5]; codeine series, 5 mg/kg oral, median value
  Tmax: 15.0 min
[5]; codeine series, oral bioavailability, 5 mg/kg oral vs 1 mg/kg IV
  F %: 0.60%

## COCCOCCOCCOCCOCCOC1CCC2(O)C3Cc4ccc(OC)c5c4C2(CCN3C)C1O5 (stereo not drawn) [α-6-mPEG5-O-hydroxycodone, α-6-mPEG5-O-oxycodone]
[4]; [6]
  AUC: 282 ng·h/mL
  AUC(0-inf): 295 ng·h/mL
  MRT last: 46.2 min
  clearance: 57 ± 6.07 mL/min/kg
  Vd: 3.3 ± 0.184 L/kg
[4]; [7]
  Cmax: 622 ± 39.7 ng/mL
[4]; [8]
  half-life: 62.1 ± 3.85 min
[1]; [9]
  Ki: 1860 nM
[2]; [10]
  Emax: 108%
[2]; [11]
  EC50: 5040 nM

## COCCOCCOCCOCCOCCOCCOCCOCCOCCOC1C=CC2C3Cc4ccc(OC)c5c4C2(CCN3C)C1O5 (stereo not drawn) [α-6-mPEG9-O-codeine]
[4]; [12]
  AUC: 297 ng·h/mL
  AUC(0-inf): 347 ng·h/mL
  MRT last: 57.2 min
  clearance: 48.6 ± 6.74 mL/min/kg
  Vd: 5.18 ± 0.538 L/kg
[4]; [13]
  Cmax: 730 ± 68 ng/mL
[4]; [14]
  half-life: 109 ± 1.8 min
[1]; [9]
  Ki: 9980 nM
[2]; [10]
  Emax: 80%
[2]; [11]
  EC50: 48200 nM
[5]; [15]
  AUC: 122 ng·h/mL
  AUC(0-inf): 114 ng·h/mL
  MRT last: 2.98 h
  bioavailability: 8.22%
[5]; [16]
  Cmax: 31.5 ± 8.43 ng/mL
[5]; [17]
  half-life: 143 min
[5]; [18]
  Tmax: 15 min

## COCCOCCOCCOC1C=CC2C3Cc4ccc(OC)c5c4C2(CCN3C)C1O5 (stereo not drawn) [α-6-mPEG3-O-codeine]
[4]; [12]
  AUC: 288 ng·h/mL
  AUC(0-inf): 290 ng·h/mL
  MRT last: 33.8 min
  clearance: 57.7 ± 4.89 mL/min/kg
  Vd: 2.07 ± 0.127 L/kg
[4]; [13]
  Cmax: 732 ± 27.1 ng/mL
[4]; [14]
  half-life: 39.4 ± 1.49 min
[1]; [9]
  Ki: 4260 nM
[2]; [10]
  Emax: 91%
[5]; [15]
  AUC: 32 ng·h/mL
  AUC(0-inf): 34.7 ng·h/mL
  MRT last: 1.18 h
  bioavailability: 2.39%
[5]; [16]
  Cmax: 25 ± 6.59 ng/mL
[5]; [17]
  half-life: 125 ± 64.6 min
[5]; [18]
  Tmax: 15 min

## COCCOCCOCCOCCOCCOCCOCCOCCOCCOC1C=CC2C3Cc4ccc(O)c5c4C2(CCN3C)C1O5 (stereo not drawn) [α-6-mPEG9-O-Morphine, α-6-mPEG-O9-morphine]
[1]; [9]
  Ki: 111 nM
[2]; [10]
  Emax: 87%
[2]; [11]
  EC50: 1060 nM

## COCCOCCOCCOCCOCCOCCOC1C=CC2C3Cc4ccc(O)c5c4C2(CCN3C)C1O5 (stereo not drawn) [α-6-mPEG6-O-morphine]
[1]
  Ki: 73 nM
[2]
  EC50: 415 nM
  Emax: 98%

## COCCOCCOCCOCCOCCOC1C=CC2C3Cc4ccc(O)c5c4C2(CCN3C)C1O5 (stereo not drawn) [α-6-mPEG5-O-morphine]
[1]
  Ki: 39.4 nM
[2]
  EC50: 157 nM
  Emax: 95%

## COCCOC1C=CC2C3Cc4ccc(O)c5c4C2(CCN3C)C1O5 (stereo not drawn) [α-6-mPEG1-O-morphine]
[1]
  Ki: 15.7 nM
[2]
  EC50: 85 nM
  Emax: 91%

## COCCOCCOC1CCC2(O)C3Cc4ccc(OC)c5c4C2(CCN3C)C1O5 (stereo not drawn) [α-6-mPEG2-O-hydroxycodone, α-6-mPEG2-O-oxycodone]
[4]; [6]
  AUC: 200 ng·h/mL
  AUC(0-inf): 203 ng·h/mL
  MRT last: 37 min
  clearance: 83.3 ± 10.8 mL/min/kg
  Vd: 3.36 ± 0.298 L/kg
[4]; [7]
  Cmax: 513 ± 48.8 ng/mL
[4]; [8]
  half-life: 44.6 ± 1.8 min
[1]; [9]
  Ki: 632 nM
[2]; [10]
  Emax: 101%
[2]; [11]
  EC50: 5010 nM
[5]; [15]
  bioavailability: 9.4%
[5]; [20]
  AUC: 98.5 ng·h/mL
  MRT last: 0.923 h
[5]; male, Sprague-Dawley, rat, plasma, hydroxycodone series, 5.0 mg/kg oral, Mean ± SD, * n = 2
  AUC(0-inf): 97.2 ng·h/mL
[5]; male, Sprague-Dawley, rat, plasma, hydroxycodone series, 5.0 mg/kg oral, Mean ± SD, * n = 2, read-out: T1/2(z)
  half-life: 48.5 ± 12 min
[5]; male, Sprague-Dawley, rat, plasma, hydroxycodone series, 5.0 mg/kg oral, Mean ± SD, read-out: Cmax
  Cmax: 99.4 ± 47.3 ng/mL
[5]; male, Sprague-Dawley, rat, plasma, hydroxycodone series, 5.0 mg/kg oral, median value, read-out: Tmax (converted)
  Tmax: 15 min

## COCCOCCOCCOC1C=CC2C3Cc4ccc(O)c5c4C2(CCN3C)C1O5 (stereo not drawn) [α-6-mPEG3-O-morphine]
[3]; 0.1 mg/kg/injection
  subjects showing addictive behavior: 33%
[3]; 0.3 mg/kg/injection
  subjects showing addictive behavior: all animals
[1]
  Ki: 50.7 nM
[2]
  EC50: 270 nM
  Emax: 100%

## COCCOCCOCCOCCOC1C=CC2C3Cc4ccc(O)c5c4C2(CCN3C)C1O5 (stereo not drawn) [α-6-mPEG4-O-morphine]
[1]
  Ki: 23.1 nM
[2]
  EC50: 128 nM
  Emax: 100%

## COCCOCCOCCOCCOCCOCCOCCOCCOCCOC1CCC2(O)C3Cc4ccc(OC)c5c4C2(CCN3C)C1O5 (stereo not drawn) [α-6-mPEG9-O-hydroxycodone, α-6-mPEG9-O-oxycodone]
[4]; 1 mg/kg IV
  mean t1/2 value, times that of the parent compound: 3 times
[4]; [6]
  AUC: 277 ng·h/mL
  AUC(0-inf): 350 ng·h/mL
  MRT last: 52.7 min
  clearance: 48.9 ± 9.41 mL/min/kg
  Vd: 6.35 ± 0.349 L/kg
[4]; [7]
  Cmax: 955 ± 149 ng/mL
[4]; [8]
  half-life: 143 ± 14.3 min
[2]; [10]
  Emax: 95%

## COc1ccc2c3c1OC1C(O)CCC4(O)C(C2)N(C)CCC314 (stereo not drawn) [Hydroxycodone, α-6-hydroxycodone, reference compound]
[2]; [11]
  EC50: 3160 nM
